Molecular target: P. falciparum apicoplast DNA polymerase (Pf-apPOL) (Plasmodium falciparum, UniProt Q8ILY1)
Assay: Fluorescence-based high-throughput DNA polymerase assay (molecular beacon), primary screen and dose-response;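 for % inhibition ApPOL 90': test concentration in µM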;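 for % inhibition apPOL 180': test concentration in µM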
Format: biochemical
How it was run: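 Single-point screening used 10 µM compound with 20 nM polymerase, 20 nM hairpin substrate and 6 µM dNTPs for 90 min at 25 °C. Confirmatory titrations (2.5–80 µM) followed fluorescence at three times, and IC50 was derived from a fit including a cooperativity term n.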

P. falciparum apicoplast DNA polymerase (Pf-apPOL), sequence (Q8ILY1 entry or part of it): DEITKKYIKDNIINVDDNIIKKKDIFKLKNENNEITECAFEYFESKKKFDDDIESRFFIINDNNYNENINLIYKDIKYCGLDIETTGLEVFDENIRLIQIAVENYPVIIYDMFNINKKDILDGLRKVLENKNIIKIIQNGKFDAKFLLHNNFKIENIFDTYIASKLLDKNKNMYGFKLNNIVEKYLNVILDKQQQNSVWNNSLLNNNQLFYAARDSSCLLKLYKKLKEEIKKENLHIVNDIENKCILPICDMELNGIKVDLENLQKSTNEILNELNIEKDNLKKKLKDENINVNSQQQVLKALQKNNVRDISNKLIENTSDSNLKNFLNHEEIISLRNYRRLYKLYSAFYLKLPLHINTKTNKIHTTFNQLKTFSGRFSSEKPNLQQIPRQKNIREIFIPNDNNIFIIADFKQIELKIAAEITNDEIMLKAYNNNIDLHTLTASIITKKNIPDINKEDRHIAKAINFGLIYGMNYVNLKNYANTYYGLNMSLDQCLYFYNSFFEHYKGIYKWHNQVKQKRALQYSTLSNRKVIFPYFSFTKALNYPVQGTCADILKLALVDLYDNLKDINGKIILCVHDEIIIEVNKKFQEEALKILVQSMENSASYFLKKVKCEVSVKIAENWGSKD

## CCOc1nc2cccc(C(=O)OC(C)OC(=O)OC3CCCCC3)c2n1Cc1ccc(-c2ccccc2-c2nn[nH]n2)cc1 (stereo not drawn) [Molecule 94, CCOc1nc2c(n1Cc1ccc(cc1)c1ccccc1c1n[nH]nn1)c(ccc2)C(=O)OC(OC(=O)OC1CCCCC1)C]
'DNA Pol' of the 186 hits list (screen value); 90 min, 10 µM
  DNA Pol: 88
DRC-1; 10'; conc 2.5
  % inhibition Apo pol 10': 6.803%
DRC-1; 10'; conc 5
  % inhibition Apo pol 10': 16.1591%
DRC-1; 10'; conc 10
  % inhibition Apo pol 10': 73.0339%
DRC-1; 10'; conc 20
  % inhibition Apo pol 10': 91.1%
DRC-1; 10'; conc 40
  % inhibition Apo pol 10': 96.7244%
DRC-1; 10'; conc 80
  % inhibition Apo pol 10': 98.4846%
DRC-1; 90'; conc 2.5
  % inhibition Apol 90': 4.826%
DRC-1; 90'; conc 5
  % inhibition Apol 90': 16.7075%
DRC-1; 90'; conc 10
  % inhibition Apol 90': 71.8878%
DRC-1; 90'; conc 20
  % inhibition Apol 90': 89.9299%
DRC-1; 90'; conc 40
  % inhibition Apol 90': 93.9408%
DRC-1; 90'; conc 80
  % inhibition Apol 90': 94.456%
DRC-1; 180'; conc 2.5
  % inhibition apPOL 180': 1.0757%
DRC-1; 180'; conc 5
  % inhibition apPOL 180': 11.5491%
DRC-1; 180'; conc 10
  % inhibition apPOL 180': 64.6519%
DRC-1; 180'; conc 20
  % inhibition apPOL 180': 87.4687%
DRC-1; 180'; conc 40
  % inhibition apPOL 180': 92.7393%
DRC-1; 180'; conc 80
  % inhibition apPOL 180': 93.1007%
DRC-2; 5'; conc 2.5
  % inhibition Apo pol 5': 8%
DRC-2; 5'; conc 5
  % inhibition Apo pol 5': 14%
DRC-2; 5'; conc 10
  % inhibition Apo pol 5': 46%
DRC-2; 5'; conc 20
  % inhibition Apo pol 5': 55%
DRC-2; 5'; conc 40
  % inhibition Apo pol 5': 61%
DRC-2; 5'; conc 80
  % inhibition Apo pol 5': 61%
DRC-2; 5'; concentration 5
  % inhibition Apo pol 5': 14%
DRC-2; 5'; concentration 40
  % inhibition Apo pol 5': 61%
DRC-2; 5'; concentration 80
  % inhibition Apo pol 5': 61%
DRC-2; 40'; conc 2.5
  % inhibition Apol 40': 11%
DRC-2; 40'; conc 5
  % inhibition Apol 40': 19%
DRC-2; 40'; conc 10
  % inhibition Apol 40': 59%
DRC-2; 40'; conc 20
  % inhibition Apol 40': 71%
DRC-2; 40'; conc 40
  % inhibition Apol 40': 74%
DRC-2; 40'; conc 80
  % inhibition Apol 40': 74%
DRC-2; 40'; concentration 5
  % inhibition Apol 40': 19%
DRC-2; 40'; concentration 10
  % inhibition Apol 40': 59%
DRC-2; 40'; concentration 40
  % inhibition Apol 40': 74%
DRC-2; 40'; concentration 80
  % inhibition Apol 40': 74%
DRC-2; 90'; conc 2.5
  % inhibition ApPOL 90': 9%
DRC-2; 90'; conc 5
  % inhibition ApPOL 90': 19%
DRC-2; 90'; conc 10
  % inhibition ApPOL 90': 59%
DRC-2; 90'; conc 20
  % inhibition ApPOL 90': 73%
DRC-2; 90'; conc 40
  % inhibition ApPOL 90': 77%
DRC-2; 90'; conc 80
  % inhibition ApPOL 90': 77%
DRC-2; 90'; concentration 5
  % inhibition ApPOL 90': 19%
DRC-2; 90'; concentration 10
  % inhibition ApPOL 90': 59%
DRC-2; 90'; concentration 40
  % inhibition ApPOL 90': 77%
DRC-2; 90'; concentration 80
  % inhibition ApPOL 90': 77%
DRC-2; 180'; conc 2.5
  % inhibition apPOL 180': 4.45%
DRC-2; 180'; conc 5
  % inhibition apPOL 180': 14%
DRC-2; 180'; conc 10
  % inhibition apPOL 180': 53%
DRC-2; 180'; conc 20
  % inhibition apPOL 180': 69%
DRC-2; 180'; conc 40
  % inhibition apPOL 180': 75%
DRC-2; 180'; conc 80
  % inhibition apPOL 180': 75%
DRC-2; 180'; concentration 5
  % inhibition apPOL 180': 14%
DRC-2; 180'; concentration 40
  % inhibition apPOL 180': 75%
DRC-2; 180'; concentration 80
  % inhibition apPOL 180': 75%
Primary screen value, "DNA Pol"; 90 min, 10 µM
  DNA Pol: 88

## O=C(O)c1c(F)c(F)c(-c2c(F)c(F)c(C(=O)O)c(F)c2F)c(F)c1F [KU0008974]
186 hits, value of the hit list (primary screen); unit not given; 90 min, 10 µM
  DNA Pol: 36
DRC-1; 10'; concentration 2.5
  % inhibition Apo pol 10': 9.435%
DRC-1; 10'; concentration 5
  % inhibition Apo pol 10': 13.4595%
DRC-1; 10'; concentration 10
  % inhibition Apo pol 10': 21.422%
DRC-1; 10'; concentration 20
  % inhibition Apo pol 10': 42.0339%
DRC-1; 10'; concentration 40
  % inhibition Apo pol 10': 61.4201%
DRC-1; 10'; concentration 80
  % inhibition Apo pol 10': 59.9111%
DRC-1; 90'; concentration 2.5
  % inhibition Apol 90': 3.377%
DRC-1; 90'; concentration 5
  % inhibition Apol 90': 7.4359%
DRC-1; 90'; concentration 10
  % inhibition Apol 90': 14.2426%
DRC-1; 90'; concentration 20
  % inhibition Apol 90': 33.67%
DRC-1; 90'; concentration 40
  % inhibition Apol 90': 52.8962%
DRC-1; 90'; concentration 80
  % inhibition Apol 90': 50.0149%
DRC-1; 180'; concentration 2.5
  % inhibition apPOL 180': -2.039%
DRC-1; 180'; concentration 5
  % inhibition apPOL 180': 0.5684%
DRC-1; 180'; concentration 10
  % inhibition apPOL 180': 7.634%
DRC-1; 180'; concentration 20
  % inhibition apPOL 180': 22.5458%
DRC-1; 180'; concentration 40
  % inhibition apPOL 180': 40.2712%
DRC-1; 180'; concentration 80
  % inhibition apPOL 180': 38.6937%
DRC-2, 5', concentration 2.5
  % inhibition Apo pol 5': 4%
DRC-2, 5', concentration 5
  % inhibition Apo pol 5': 5%
DRC-2, 5', concentration 10
  % inhibition Apo pol 5': 17%
DRC-2, 5', concentration 20
  % inhibition Apo pol 5': 29%
DRC-2, 5', concentration 40
  % inhibition Apo pol 5': 17%
DRC-2, 5', concentration 80
  % inhibition Apo pol 5': 35%
DRC-2, 40', concentration 2.5
  % inhibition Apol 40': 5%
DRC-2, 40', concentration 5
  % inhibition Apol 40': 9%
DRC-2, 40', concentration 10
  % inhibition Apol 40': 23%
DRC-2, 40', concentration 20
  % inhibition Apol 40': 41%
DRC-2, 40', concentration 40
  % inhibition Apol 40': 20%
DRC-2, 40', concentration 80
  % inhibition Apol 40': 47%
DRC-2, 90', concentration 2.5
  % inhibition ApPOL 90': 2.67%
DRC-2, 90', concentration 5
  % inhibition ApPOL 90': 7.58%
DRC-2, 90', concentration 10
  % inhibition ApPOL 90': 21%
DRC-2, 90', concentration 20
  % inhibition ApPOL 90': 39%
DRC-2, 90', concentration 40
  % inhibition ApPOL 90': 19%
DRC-2, 90', concentration 80
  % inhibition ApPOL 90': 47%
DRC-2, 180', concentration 2.5
  % inhibition apPOL 180': -4%
DRC-2, 180', concentration 5
  % inhibition apPOL 180': -1%
DRC-2, 180', concentration 10
  % inhibition apPOL 180': 12%
DRC-2, 180', concentration 20
  % inhibition apPOL 180': 30%
DRC-2, 180', concentration 40
  % inhibition apPOL 180': 14%
DRC-2, 180', concentration 80
  % inhibition apPOL 180': 40%
DRC-2; 5'; concentration 5
  % inhibition Apo pol 5': 5%
DRC-2; 5'; concentration 10
  % inhibition Apo pol 5': 17%
DRC-2; 5'; concentration 40
  % inhibition Apo pol 5': 17%
DRC-2; 40'; concentration 2.5
  % inhibition Apol 40': 5%
DRC-2; 40'; concentration 80
  % inhibition Apol 40': 47%
DRC-2; 90'; concentration 80
  % inhibition ApPOL 90': 47%
Primary screen value, 'DNA Pol' only; 90 min, 10 µM
  DNA Pol: 36
